# Measurements taken from article PMC10960024, “Diindoles produced from commensal microbiota metabolites function as endogenous CAR/Nr1i3 ligands” (Nature Communications, 2024).
# Experiments:
# [1] = Diindole levels in tissues of WT and Nr1i3-/- mice; type: in vivo
# Description: 12–15 week-old C57BL/6 J mice were obtained from Jackson Laboratories and were housed on a standard 12 h light/dark cycle. Nr1i3^−/− mice with C57BL/6 J background were obtained from David Moore’s lab (PMID: 11057673) at Baylor College of Medicine, and used at 13–26 weeks of age. Wild-type male, female and Nr1i3^−/− male mice were used in this study, due to known sex-specific CAR activities. Mice were housed in groups of 2–5 mice per cage on a standard 12 h light/dark cycle and fed with rodent chow diet (Inotiv, Teklad rodent diet 2918). Temperature was maintained at 21 °C with a range of 21–24 °C and humidity at 16–51%. National Institute of Health guidelines for the care and use of laboratory animals were followed with all experiments performed as directed by the Institutional Animal Care and Use Committee at the University of Illinois, Urbana-Champaign (UIUC, IACUC protocol: 22183). Mice were acclimatized to the UIUC mouse facility for 2 weeks prior to experiments. DIM and DIE were dissolved in 5% DMSO in corn oil and injected intraperitoneally at 25 mg/kg once daily for three days. After 4 h of the third injection, mice were sacrificed to collect serum, livers and intestines. […] Relative gene expression was calculated by the delta Ct method and normalized to 36b4 levels as loading controls. qPCR primers for gene expression analysis are listed in Supplementary Table 3.
# [2] = system: cyp2b6, cyp3a4, sult2a1 mRNA in PHH; assay: RT-qPCR of CAR target genes in primary human hepatocytes; type: cell-based; conditions: two donors, 48 h
# Description: PHH culture, RNA extraction and gene expression analyses were performed as described previously. Primer sequences for cyp2b6, cyp3a4, sult2a1, and glyceraldehyde-3-phosphate dehydrogenase (gapdh) are shown in Supplementary Table 3.
# hCAR LBD-SRC1 protein = target: T1, hCAR LBD-SRC1 protein (Homo sapiens, UniProt Q14994); assay: Fluorescence thermal shift assay (TSA); type: binding; conditions: diindoles at 12.5 µM; APO Tm 51.5 °C; means of triplicates
# T1 construct: The human CAR LBD (Lys^108 – Ser^352) was amplified by PCR from cDNA; HIS6; made in house; host or cells: E. coli BL21(DE3)
# T1 sequence (Q14994 108-352): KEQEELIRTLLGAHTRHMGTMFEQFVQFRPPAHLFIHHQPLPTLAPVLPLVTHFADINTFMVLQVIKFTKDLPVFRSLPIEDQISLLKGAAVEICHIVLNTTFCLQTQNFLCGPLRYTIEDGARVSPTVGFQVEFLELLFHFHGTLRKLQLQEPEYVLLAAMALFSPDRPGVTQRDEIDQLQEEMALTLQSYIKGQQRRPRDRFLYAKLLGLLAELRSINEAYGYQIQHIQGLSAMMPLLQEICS
# Description: Purified hCAR LBD-SRC1 protein was assayed in 137 mM NaCl, 2.7 mM KCl, 10 mM Na2HPO4, and 1.8 mM KH2PO4, 0.5% DMSO, pH 7.4, at a final concentration of 2.2 µM. SYPRO Orange was used at a final concentration of 10× (Invitrogen, S6650). Each sample was divided into three 25 µL replicates. Sample solutions were dispensed into 96-well optical reaction plates (Thermo Fisher Scientific, 4306737) and sealed with optical PCR plate sheets (Thermo Fisher Scientific, AB-1170). TSA experiments were carried out using a QuantStudio 12 K Flex Real Time PCR System (Applied Biosystems). The temperature was ramped up from 25 °C to 95 °C at a rate of 0.3 °C/min, and SYPRO orange fluorescence monitored. Raw fluorescence data and melting temperatures were determined using nonlinear regression curve fitting using GraphPad Prism 9.
# hCAR = target: T2, hCAR (Homo sapiens, UniProt Q14994); assay: hCAR nuclear translocation in primary human hepatocytes (Ad/EYFP-hCAR); type: cell-based; conditions: PHHs from two individuals; 10 µM, 8 h
# T2 construct: expressed in transfected cells; host or cells: primary human hepatocytes infected with Ad/EYFP-hCAR
# T2 sequence (Q14994 1-352): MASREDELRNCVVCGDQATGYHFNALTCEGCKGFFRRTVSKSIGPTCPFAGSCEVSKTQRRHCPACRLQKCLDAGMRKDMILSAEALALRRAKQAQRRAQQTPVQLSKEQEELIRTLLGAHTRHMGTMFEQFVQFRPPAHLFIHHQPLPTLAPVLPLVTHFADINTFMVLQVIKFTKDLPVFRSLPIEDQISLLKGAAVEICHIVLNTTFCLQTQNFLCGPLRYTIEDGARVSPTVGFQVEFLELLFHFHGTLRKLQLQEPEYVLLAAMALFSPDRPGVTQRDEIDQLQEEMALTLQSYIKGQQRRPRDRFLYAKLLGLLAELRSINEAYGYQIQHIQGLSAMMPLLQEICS
# Description: 24 h after seeding at 0.25 × 10^6 cells/well in 24-well biocoat plate, PHHs were infected with 2 µL of adenoviral enhanced yellow fluorescent protein-tagged hCAR (Ad/EYFP-hCAR) followed by treatment with 0.1% DMSO, phenobarbital (PB) (1 mM), DIM (10 µM) or DIE (10 µM) for 8 h. Cells were washed with phosphate-buffered saline and fixed for 30 min with 4% formaldehyde at room temperature and then stained with 4,6-diamidine-2-phenylindole dihydrochloride for 30 min after washing three times with phosphate-buffered saline. The subcellular localization of hCAR and nuclei were visualized using a Nikon Eclipse Ti-E inverted fluorescence microscope (Nikon, Edgewood, NY) in YFP/FITC and DAPI fluorescence channels. Compounds were added to the plate in triplicate and results analyzed as detailed below with z-factors calculated as previously described.
SMILES,"compound levels in tissues of Nr1i3-/- versus WT mice ([1]; duodenum, jejunum, ileum, liver, male mice treated with diindoles)",cyp2b6 mRNA expression [2],cyp3a4 mRNA expression (joint CAR/PXR target gene) [2],sult2a1 mRNA expression (non-target gene) [2],Tm (hCAR LBD-SRC1 protein) [°C],hCAR nuclear relocation (hCAR),"compound levels in tissues of Nr1i3-/- versus WT mice ([1]; mouse, in vivo)"
"CC(c1c[nH]c2ccccc12)c1c[nH]c2ccccc12 [DIE, 3,3’-diindolylethane]",increased dramatically,selectively upregulated,more variable,no effects,59.6,efficiently promote hCAR nuclear relocation,
"c1ccc2c(Cc3c[nH]c4ccccc34)c[nH]c2c1 [DIM, diindolylmethane]",,selectively upregulated,more variable,no effects,57.1,efficiently promote hCAR nuclear relocation,increased dramatically
